{
  "source": "patent US20100120690A1",
  "about": "“Polypeptides Having Antimicrobial Activity and Polynucleotides Encoding Same” (Novozymes Adenium Biotech A/S, priority 2005, published 2010)",
  "data": [
    {"test_system": "Staphylococcus aureus, MRSA ST80 (2003)", "assay": "MIC, NCCLS/CLSI guidelines (Example 5), strain E", "assay_type": "cell-based", "conditions": "relative to wildtype Plectasin; average of two independent experiments", "experimental": "(§1) Plectasin wild-type (SEQ ID NO: 1) and several variants of Plectasin were expressed and purified. The Minimal Inhibitory Concentration (MIC) was determined to test for their antimicrobial activity following the NCCLS guidelines from CLSI (Clinical and Laboratory Standards Institute; formerly known as National Committee for Clinical and Laboratory Standards).\n(§2) The peptides were tested against the following strains: • A: Staphylococcus aureus, ATCC 29213; • B: Staphylococcus aureus, ATCC 25923; • C: Staphylococcus aureus, ATCC 29737; • D: Staphylococcus aureus, MRSA ST5 (2001), multi-resistant clinical human isolate from Statens Serum Institut, Denmark; • E: Staphylococcus aureus, MRSA ST80 (2003), multi-resistant clinical human isolate from Statens Serum Institut, Denmark.\n(§3) All MIC values represent an average of two independent experiments; and all results in Table 5 are expressed relative to wildtype Plectasin:\n(§4) 0: >100% of Plectasin wildtype MIC; 1: 80-100% of Plectasin wildtype MIC; 2: 50-80% of Plectasin wildtype MIC; 3: <50% of Plectasin wildtype MIC.", "values": [
      {"substance": "GFGCNGPWDEDDMFCHNHCKSIKGYKGGYCAKGGFVCKCY [Mutation Q14F]", "Relative MIC, strain E": "3 (<50% of Plectasin wildtype MIC)"},
      {"substance": "GFGCNGPWDEDDMQCHNHCKSIKRYKGGYCAKGGFVCKCY [Mutation G24R]", "Relative MIC, strain E": "2 (50-80% of Plectasin wildtype MIC)"},
      {"substance": "M13F + Q14K + K26R: variant of Plectasin (SEQ ID NO: 1) (GFGCNGPWDEDDFKCHNHCKSIKGYRGGYCAKGGFVCKCY)", "Relative MIC, strain E": "3 (<50% of Plectasin wildtype MIC)"},
      {"substance": "M13V + N17T: variant of Plectasin (SEQ ID NO: 1) (GFGCNGPWDEDDVQCHTHCKSIKGYKGGYCAKGGFVCKCY)", "Relative MIC, strain E": "3 (<50% of Plectasin wildtype MIC)"},
      {"substance": "N5R + M13V: variant of Plectasin (SEQ ID NO: 1) (GFGCRGPWDEDDVQCHNHCKSIKGYKGGYCAKGGFVCKCY)", "Relative MIC, strain E": "3 (<50% of Plectasin wildtype MIC)"}
    ]},
    {"test_system": "Staphylococcus aureus, MRSA ST5 (2001)", "assay": "MIC, NCCLS/CLSI guidelines (Example 5), strain D", "assay_type": "cell-based", "conditions": "relative to wildtype Plectasin; average of two independent experiments", "experimental": "as §1, §2, §3, §4", "values": [
      {"substance": "GFGCNGPWDEDDMFCHNHCKSIKGYKGGYCAKGGFVCKCY [Mutation Q14F]", "Relative MIC, strain D": "2 (50-80% of Plectasin wildtype MIC)"},
      {"substance": "GFGCNGPWDEDDMQCHNHCKSIKRYKGGYCAKGGFVCKCY [Mutation G24R]", "Relative MIC, strain D": "2 (50-80% of Plectasin wildtype MIC)"},
      {"substance": "M13F + Q14K + K26R: variant of Plectasin (SEQ ID NO: 1) (GFGCNGPWDEDDFKCHNHCKSIKGYRGGYCAKGGFVCKCY)", "Relative MIC, strain D": "3 (<50% of Plectasin wildtype MIC)"},
      {"substance": "M13V + N17T: variant of Plectasin (SEQ ID NO: 1) (GFGCNGPWDEDDVQCHTHCKSIKGYKGGYCAKGGFVCKCY)", "Relative MIC, strain D": "3 (<50% of Plectasin wildtype MIC)"},
      {"substance": "N5R + M13V: variant of Plectasin (SEQ ID NO: 1) (GFGCRGPWDEDDVQCHNHCKSIKGYKGGYCAKGGFVCKCY)", "Relative MIC, strain D": "2 (50-80% of Plectasin wildtype MIC)"}
    ]},
    {"test_system": "Staphylococcus aureus, ATCC 25923", "assay": "MIC, NCCLS/CLSI guidelines (Example 5), strain B", "assay_type": "cell-based", "conditions": "relative to wildtype Plectasin; average of two independent experiments", "experimental": "as §1, §2, §3, §4", "values": [
      {"substance": "GFGCNGPWDEDDMQCHNHCKSIKRYKGGYCAKGGFVCKCY [Mutation G24R]", "Relative MIC, strain B": "2 (50-80% of Plectasin wildtype MIC)"},
      {"substance": "M13V + N17T: variant of Plectasin (SEQ ID NO: 1) (GFGCNGPWDEDDVQCHTHCKSIKGYKGGYCAKGGFVCKCY)", "Relative MIC, strain B": "3 (<50% of Plectasin wildtype MIC)"}
    ]},
    {"test_system": "Staphylococcus carnosus ATCC51365", "assay": "Yeast screening assay: radial diffusion assay of yeast supernatants", "assay_type": "cell-based", "set-up": "key: An activity of 3 is better than Plectasin; An activity of 2 corresponds to the activity of Plectasin; 1 is worse than Plectasin", "conditions": "yeast supernatant, clearing zone in radial diffusion assay", "method_in_brief": "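Supernatants from S. cerevisiae expressing plectasin variants, grown 3 days at 30 °C in galactose medium, were applied to agarose containing 5×10^5 cfu/mL S. carnosus. Plates were incubated 3 h at 37 °C, overlaid, left overnight and MTT-stained. Clearing zones were scored as 2 = plectasin-like, 3 = better, 1 = worse.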", "values": [
      {"substance": "GFGCNGPWDEDDMFCHNHCKSIKGYKGGYCAKGGFVCKCY [Mutation Q14F]", "Activity (antimicrobial activity relative to the activity of plectasin)": 3},
      {"substance": "GFGCNGPWDEDDMQCHNHCKSIKRYKGGYCAKGGFVCKCY [Mutation G24R]", "Activity (antimicrobial activity relative to the activity of plectasin)": 2}
    ]},
    {"test_system": "Staphylococcus aureus, ATCC 29737", "assay": "MIC, NCCLS/CLSI guidelines (Example 5), strain C", "assay_type": "cell-based", "conditions": "relative to wildtype Plectasin; average of two independent experiments", "experimental": "as §1, §2, §3, §4", "values": [
      {"substance": "GFGCNGPWDEDDMFCHNHCKSIKGYKGGYCAKGGFVCKCY [Mutation Q14F]", "Relative MIC, strain C": "3 (<50% of Plectasin wildtype MIC)"},
      {"substance": "M13F + Q14K + K26R: variant of Plectasin (SEQ ID NO: 1) (GFGCNGPWDEDDFKCHNHCKSIKGYRGGYCAKGGFVCKCY)", "Relative MIC, strain C": "3 (<50% of Plectasin wildtype MIC)"},
      {"substance": "M13V + N17T: variant of Plectasin (SEQ ID NO: 1) (GFGCNGPWDEDDVQCHTHCKSIKGYKGGYCAKGGFVCKCY)", "Relative MIC, strain C": "3 (<50% of Plectasin wildtype MIC)"},
      {"substance": "N5R + M13V: variant of Plectasin (SEQ ID NO: 1) (GFGCRGPWDEDDVQCHNHCKSIKGYKGGYCAKGGFVCKCY)", "Relative MIC, strain C": "3 (<50% of Plectasin wildtype MIC)"}
    ]},
    {"test_system": "panel of 6 different strains of Staphylococcus aureus", "assay": "Average MIC, NCCLS/CLSI guidelines using caMHB (Example 6)", "assay_type": "cell-based", "conditions": "average over 6 S. aureus strains, duplicate; MIC above 32 counted as 64; read after 18-24 hours at 37° C.", "experimental": "A large number of antimicrobial peptides of the invention were tested against a panel of 6 different strains of Staphylococcus aureus listed below:\nStaphylococcus aureus, ATCC29213, MSSA, NCCLS reference strain; Staphylococcus aureus, ATCC25923, MSSA, NCCLS reference strain; Staphylococcus aureus, ATCC29737, MSSA; Staphylococcus aureus, E33235, MSSA; Staphylococcus aureus, 698-01, MRSA ST5, Str, Kan, Oxa; Staphylococcus aureus, 566-03, MRSA ST80, Oxa, Tet, Fus, Kan.\nThe staphylococci were exposed to the following peptide concentrations: 32; 16; 8; 4; 2; 1; 0.5; 0.25; 0.13; […]; and 0.03 microgram/mL. All peptides were purified, HPLC quantified and the concentrated peptides (>160 micrograms/mL) were diluted to 160 micrograms/mL in peptide dilution buffer (0.1% BSA, 0.01% Acetic Acid).\nThe MIC determination was done essentially as described by NCCLS/CLSI guidelines using caMHB. The MICs were read after 18-24 hours of 37° C. incubations and recorded along with the CFU in the table below.\nA total number of 95 antimicrobial peptides of the invention were evaluated in duplicate against the 6 bacterial strains described above.\nIn the majority of the double determinations (93%), the MIC varied <2 fold. An average MIC is tabulated below. If the MIC was above 32 micrograms/mL, a value of 64 was used to calculate the average.", "units": {"Average MIC": "micrograms/mL"}, "values": [
      {"substance": "GFGCNGPWDEDDMFCHNHCKSIKGYKGGYCAKGGFVCKCY [Mutation Q14F]", "Average MIC": 5},
      {"substance": "GFGCNGPWDEDDMQCHNHCKSIKRYKGGYCAKGGFVCKCY [Mutation G24R]", "Average MIC": 8},
      {"substance": "M13F + Q14K + K26R: variant of Plectasin (SEQ ID NO: 1) (GFGCNGPWDEDDFKCHNHCKSIKGYRGGYCAKGGFVCKCY)", "Average MIC": 6},
      {"substance": "M13V + N17T: variant of Plectasin (SEQ ID NO: 1) (GFGCNGPWDEDDVQCHTHCKSIKGYKGGYCAKGGFVCKCY)", "Average MIC": 3},
      {"substance": "N5R + M13V: variant of Plectasin (SEQ ID NO: 1) (GFGCRGPWDEDDVQCHNHCKSIKGYKGGYCAKGGFVCKCY)", "Average MIC": 5}
    ]},
    {"test_system": "Staphylococcus aureus, ATCC 29213", "assay": "MIC, NCCLS/CLSI guidelines (Example 5), strain A", "assay_type": "cell-based", "conditions": "relative to wildtype Plectasin; average of two independent experiments", "experimental": "as §1, §2, §3, §4", "values": [
      {"substance": "GFGCNGPWDEDDMFCHNHCKSIKGYKGGYCAKGGFVCKCY [Mutation Q14F]", "Relative MIC, strain A": "1 (80-100% of Plectasin wildtype MIC)"},
      {"substance": "GFGCNGPWDEDDMQCHNHCKSIKRYKGGYCAKGGFVCKCY [Mutation G24R]", "Relative MIC, strain A": "1 (80-100% of Plectasin wildtype MIC)"},
      {"substance": "M13F + Q14K + K26R: variant of Plectasin (SEQ ID NO: 1) (GFGCNGPWDEDDFKCHNHCKSIKGYRGGYCAKGGFVCKCY)", "Relative MIC, strain A": "3 (<50% of Plectasin wildtype MIC)"},
      {"substance": "N5R + M13V: variant of Plectasin (SEQ ID NO: 1) (GFGCRGPWDEDDVQCHNHCKSIKGYKGGYCAKGGFVCKCY)", "Relative MIC, strain A": "3 (<50% of Plectasin wildtype MIC)"}
    ]}
  ]
}
